From patent publication US9789066B2, “Process for making tablet using radiofrequency and lossy coated particles” (JOHNSON & JOHNSON CONSUMER INC., priority 2014, dated 2017) come the findings set out here.

This data set in a line: Dielectric measurement (e′, e″, Q value) by Slotted Line Method at 27 MHz. Particulars: raw material. In kind it is physicochemical. From the text:
The property of permittivity is the measure of the resistance to forming an electric field. For purposes of comparing materials in air, it is often convenient to describe the permittivity of material in air where the permittivity is more specifically called “relative permittivity” or ? r. This is a complex number represented by the following equation: ? r=e'-je'' where e' (the real portion of the complex number) is the dielectric constant (energy storage) and e'' (the imaginary portion of the complex number) is the dielectric loss or dissipation factor (energy dissipated as heat). The ratio of dielectric loss (e'') over the dielectric constant (e') is called the loss tangent (tan δ) or power factor. […] The Q value is affected by physical and chemical properties such as density (porosity/particle size), moisture (conductivity), temperature, and molecular polarizability. The measurements obtained by this method can eliminate the need to measure and evaluate these properties independently. […] The Q values were measured using a HP […] Slotted Line as sample holder (carriage removed) connected to Agilent […] to ports A and B (transmission mode). […] This process is referred to as the “Slotted Line Method.” Unless otherwise stated, the Slotted line method was used for the calculation of e', e'', and Q value herein with the frequency range set to 26-28 MHz (31 points resolution) and values of e' and e'' were recorded from the 27 MHz data point.

Turning to `OC[C@@H](O)[C@@H](O[C@H]1O[C@H](CO)[C@@H](O)[C@H](O)[C@H]1O)[C@H](O)[C@@H](O)CO` [Maltitol (SweetPearl DC300), Maltitol], the “Loss Tangent” value is given as 0.0022, the “e′” value came to 1.6214 and the “e″” value amounted to 0.0035.
